Laboratory results reported in patent US8212050B2, “Amidine compounds and herbicides” (Nippon Soda Co., Ltd., priority 2005, dated 2012).

| SMILES | melting point [°C] |
| --- | --- |
| C#CCOc1cc(N=C(C=NOC)N2CCCC2)c(F)cc1Cl [compound 190, 2-(4-chloro-2-fluoro-5-propargyloxyphenylimino)-2-(pyrrolidine-1-yl)acetaldehyde O-methyloxime] | 73 to 75 |
| CCOC(=O)C(C)Oc1cc(N=C(C(N)=O)N2CCCC2)c(Cl)cc1Cl (centres unmarked) [compound 293, 2-[2,4-dichloro-5-(1-ethoxycarbonylethoxy)phenylimino]-2-(pyrrolidine-1-yl)acetamide] | 160 to 163 |
